# From ChEMBL document CHEMBL3351767, “The discovery of Polo-like kinase 4 inhibitors: design and optimization of spiro[cyclopropane-1,3'[3H]indol]-2'(1'H).ones as orally bioavailable antitumor agents” (J Med Chem, 2015)
# What was measured:
# MCF7 = assay: Cytotoxicity against human MCF7 cells after 5 days by SRB assay; format: functional; conditions: MCF7, 120 h
# MDA-MB-468 = assay: Cytotoxicity against human MDA-MB-468 cells after 5 days by SRB assay; format: functional; conditions: MDA-MB-468, 120 h
# MDA-MB-231 = assay: Cytotoxicity against human MDA-MB-231 cells after 5 days by SRB assay; format: functional; conditions: MDA-MB-231, 120 h
# [1] = Cytotoxicity against human SKBR3 cells after 5 days by SRB assay; format: functional; conditions: SK-BR-3, 120 h
# [2] = target: Vascular endothelial growth factor receptor 2 (Homo sapiens, UniProt P35968); assay: Inhibition of KDR (unknown origin) by FRET-based homogeneous assay
# Vascular endothelial growth factor receptor 2, sequence (P35968 whole entry): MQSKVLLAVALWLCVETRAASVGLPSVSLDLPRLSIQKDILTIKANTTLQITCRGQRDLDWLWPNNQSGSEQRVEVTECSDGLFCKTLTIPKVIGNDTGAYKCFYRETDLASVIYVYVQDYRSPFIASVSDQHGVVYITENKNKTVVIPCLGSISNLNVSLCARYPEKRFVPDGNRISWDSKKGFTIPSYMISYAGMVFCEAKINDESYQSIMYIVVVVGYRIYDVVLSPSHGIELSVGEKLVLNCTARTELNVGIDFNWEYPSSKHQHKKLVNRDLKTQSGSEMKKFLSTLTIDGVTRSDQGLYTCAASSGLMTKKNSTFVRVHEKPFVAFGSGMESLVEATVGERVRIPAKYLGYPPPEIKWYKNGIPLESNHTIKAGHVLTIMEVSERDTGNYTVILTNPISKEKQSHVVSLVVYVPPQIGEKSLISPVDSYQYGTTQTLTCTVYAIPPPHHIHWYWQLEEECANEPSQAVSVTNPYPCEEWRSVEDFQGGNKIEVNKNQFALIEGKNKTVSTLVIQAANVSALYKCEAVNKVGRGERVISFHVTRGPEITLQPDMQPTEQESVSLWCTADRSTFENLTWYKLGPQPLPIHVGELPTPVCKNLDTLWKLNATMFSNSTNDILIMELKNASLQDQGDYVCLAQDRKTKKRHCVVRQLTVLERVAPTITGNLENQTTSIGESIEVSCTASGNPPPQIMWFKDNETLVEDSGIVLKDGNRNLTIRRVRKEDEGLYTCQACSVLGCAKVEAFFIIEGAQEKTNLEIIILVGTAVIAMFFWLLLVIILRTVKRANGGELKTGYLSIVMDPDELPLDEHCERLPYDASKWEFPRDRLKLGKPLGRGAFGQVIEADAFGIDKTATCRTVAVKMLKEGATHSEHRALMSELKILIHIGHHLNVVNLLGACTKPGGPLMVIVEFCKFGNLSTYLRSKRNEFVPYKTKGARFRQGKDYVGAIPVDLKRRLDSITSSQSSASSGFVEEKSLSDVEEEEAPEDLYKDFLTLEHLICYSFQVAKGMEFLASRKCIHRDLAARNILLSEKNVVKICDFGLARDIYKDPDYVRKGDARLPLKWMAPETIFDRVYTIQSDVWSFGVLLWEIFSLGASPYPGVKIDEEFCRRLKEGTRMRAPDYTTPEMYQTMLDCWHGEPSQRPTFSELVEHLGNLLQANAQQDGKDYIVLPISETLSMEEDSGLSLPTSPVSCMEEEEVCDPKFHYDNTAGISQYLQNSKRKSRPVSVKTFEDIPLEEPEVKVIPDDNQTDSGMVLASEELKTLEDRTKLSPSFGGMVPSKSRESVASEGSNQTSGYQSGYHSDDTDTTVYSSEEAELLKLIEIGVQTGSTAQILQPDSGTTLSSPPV
# Cytochrome P450 1A2 = target: T1, Cytochrome P450 1A2 (Homo sapiens, UniProt P05177); assay: Inhibition of CYP1A2 (unknown origin) using CEC substrate after 15 mins by fluorescence assay; format: ADME
# T1 sequence (P05177 whole entry): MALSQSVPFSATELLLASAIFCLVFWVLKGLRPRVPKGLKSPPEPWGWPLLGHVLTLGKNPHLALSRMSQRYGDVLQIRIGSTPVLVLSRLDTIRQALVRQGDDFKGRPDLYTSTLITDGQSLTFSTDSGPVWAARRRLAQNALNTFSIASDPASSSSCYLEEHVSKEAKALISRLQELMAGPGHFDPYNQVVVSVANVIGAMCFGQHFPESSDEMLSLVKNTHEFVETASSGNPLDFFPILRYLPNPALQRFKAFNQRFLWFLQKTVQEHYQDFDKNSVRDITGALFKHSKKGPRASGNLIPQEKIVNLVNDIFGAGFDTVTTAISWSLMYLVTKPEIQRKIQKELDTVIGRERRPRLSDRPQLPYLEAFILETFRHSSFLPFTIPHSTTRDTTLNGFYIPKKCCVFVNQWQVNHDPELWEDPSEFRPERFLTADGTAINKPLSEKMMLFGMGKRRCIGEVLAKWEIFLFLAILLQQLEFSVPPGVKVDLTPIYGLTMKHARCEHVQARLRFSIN
# Cytochrome P450 2C9 = Cytochrome P450 2C9 (Homo sapiens, UniProt P11712); assay: Inhibition of CYP2C9 (unknown origin) using MFC substrate after 45 mins by fluorescence assay; format: ADME
# Cytochrome P450 2C9, sequence (P11712 whole entry): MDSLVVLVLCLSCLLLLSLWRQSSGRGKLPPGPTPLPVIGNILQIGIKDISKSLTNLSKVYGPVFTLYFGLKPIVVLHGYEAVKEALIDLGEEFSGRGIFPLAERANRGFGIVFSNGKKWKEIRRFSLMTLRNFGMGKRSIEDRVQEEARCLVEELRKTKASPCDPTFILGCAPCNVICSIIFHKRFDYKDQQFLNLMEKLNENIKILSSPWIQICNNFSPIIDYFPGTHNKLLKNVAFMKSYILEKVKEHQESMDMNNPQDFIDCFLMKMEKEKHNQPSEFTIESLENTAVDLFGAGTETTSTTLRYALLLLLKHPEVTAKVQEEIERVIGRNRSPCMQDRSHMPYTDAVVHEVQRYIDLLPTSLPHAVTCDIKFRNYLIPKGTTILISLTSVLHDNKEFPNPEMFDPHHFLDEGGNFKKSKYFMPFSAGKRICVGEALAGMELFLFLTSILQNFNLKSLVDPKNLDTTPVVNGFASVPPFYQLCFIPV
# Cytochrome P450 2C19 = Cytochrome P450 2C19 (Homo sapiens, UniProt P33261); assay: Inhibition of CYP2C19 (unknown origin) using MFC substrate after 30 mins by fluorescence assay; format: ADME
# Cytochrome P450 2C19, sequence (P33261 whole entry): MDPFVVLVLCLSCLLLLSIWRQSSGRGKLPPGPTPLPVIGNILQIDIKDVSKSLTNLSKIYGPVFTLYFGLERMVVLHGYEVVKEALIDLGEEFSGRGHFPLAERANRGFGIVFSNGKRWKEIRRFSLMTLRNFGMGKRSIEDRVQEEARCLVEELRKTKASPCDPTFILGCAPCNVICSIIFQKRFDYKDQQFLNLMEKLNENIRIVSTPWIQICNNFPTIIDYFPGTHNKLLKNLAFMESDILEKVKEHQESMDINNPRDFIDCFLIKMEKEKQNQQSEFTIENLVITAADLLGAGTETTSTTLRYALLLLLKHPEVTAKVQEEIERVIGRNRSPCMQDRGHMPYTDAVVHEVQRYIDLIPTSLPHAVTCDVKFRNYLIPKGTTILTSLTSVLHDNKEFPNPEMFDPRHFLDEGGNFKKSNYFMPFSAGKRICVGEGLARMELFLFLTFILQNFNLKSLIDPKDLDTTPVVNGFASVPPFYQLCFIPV
# Cytochrome P450 2D6 = Cytochrome P450 2D6 (Homo sapiens, UniProt P10635); assay: Inhibition of CYP2D6 (unknown origin) using AMMC substrate after 45 mins by fluorescence assay; format: ADME
# Cytochrome P450 2D6, sequence (P10635 whole entry): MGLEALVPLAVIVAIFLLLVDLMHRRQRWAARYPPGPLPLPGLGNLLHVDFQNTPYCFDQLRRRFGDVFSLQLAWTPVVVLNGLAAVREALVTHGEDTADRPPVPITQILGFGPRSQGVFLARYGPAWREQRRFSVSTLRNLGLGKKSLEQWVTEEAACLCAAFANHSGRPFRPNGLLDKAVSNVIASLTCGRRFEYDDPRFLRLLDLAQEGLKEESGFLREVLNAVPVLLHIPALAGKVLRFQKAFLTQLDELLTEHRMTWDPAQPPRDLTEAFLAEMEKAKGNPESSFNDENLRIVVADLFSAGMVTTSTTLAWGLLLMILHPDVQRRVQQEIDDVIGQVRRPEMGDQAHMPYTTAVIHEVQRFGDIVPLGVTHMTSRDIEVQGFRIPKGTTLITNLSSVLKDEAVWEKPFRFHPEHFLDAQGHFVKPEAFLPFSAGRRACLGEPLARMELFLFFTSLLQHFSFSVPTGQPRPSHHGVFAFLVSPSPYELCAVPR
# Cytochrome P450 3A4 = Cytochrome P450 3A4 (Homo sapiens, UniProt P08684); assay: Inhibition of CYP3A4 (unknown origin) using BFC substrate after 30 mins by fluorescence assay; format: ADME
# Cytochrome P450 3A4, sequence (P08684 whole entry): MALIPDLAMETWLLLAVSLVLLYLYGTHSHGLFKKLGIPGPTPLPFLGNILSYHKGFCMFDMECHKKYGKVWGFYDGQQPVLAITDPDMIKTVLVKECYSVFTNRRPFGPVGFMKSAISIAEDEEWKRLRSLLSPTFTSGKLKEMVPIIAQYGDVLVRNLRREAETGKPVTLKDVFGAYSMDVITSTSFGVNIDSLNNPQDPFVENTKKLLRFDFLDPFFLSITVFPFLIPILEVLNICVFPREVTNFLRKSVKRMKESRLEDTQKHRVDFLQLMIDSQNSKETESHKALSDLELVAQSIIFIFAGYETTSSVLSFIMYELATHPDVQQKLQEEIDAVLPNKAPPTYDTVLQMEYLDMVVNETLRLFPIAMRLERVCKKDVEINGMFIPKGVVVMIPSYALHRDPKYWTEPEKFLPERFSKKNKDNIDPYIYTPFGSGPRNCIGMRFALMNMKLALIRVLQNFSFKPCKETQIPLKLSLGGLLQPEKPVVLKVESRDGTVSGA
# [3] = Cmax in SCID mouse at 25 mg/kg, po by LCMS/MS method; format: ADME, organism-based; design: dose 25 mg/kg, route oral; conditions: in vivo
# [4] = AUC in SCID mouse at 25 mg/kg, po by LCMS/MS method; format: ADME, organism-based; design: dose 25 mg/kg, route oral; conditions: plasma
# [5] = Aqueous solubility at pH 7.4; format: physicochemical; conditions: buffer
# [6] = Half life in mouse liver microsomes at 1 uM in presence of NADPH by LC-MS method; format: ADME
# [7] = Half life in human liver microsomes at 1 uM in presence of NADPH by LC-MS method; format: ADME
# [8] = Cmax in SCID mouse at 50 mg/kg, ip after 8 hrs by LCMS/MS method; format: ADME, organism-based; design: dose 50 mg/kg, route intraperitoneal; conditions: in vivo
# [9] = AUC in SCID mouse at 50 mg/kg, ip after 8 hrs by LCMS/MS method; format: ADME, organism-based; design: time < 8 hr, dose 50 mg/kg, route intraperitoneal; conditions: plasma
# [10] = target: T2, Receptor-type tyrosine-protein kinase FLT3 (Homo sapiens, UniProt P36888); assay: Inhibition of FLT3 (unknown origin) by FRET-based homogeneous assay
# T2 sequence (P36888 whole entry): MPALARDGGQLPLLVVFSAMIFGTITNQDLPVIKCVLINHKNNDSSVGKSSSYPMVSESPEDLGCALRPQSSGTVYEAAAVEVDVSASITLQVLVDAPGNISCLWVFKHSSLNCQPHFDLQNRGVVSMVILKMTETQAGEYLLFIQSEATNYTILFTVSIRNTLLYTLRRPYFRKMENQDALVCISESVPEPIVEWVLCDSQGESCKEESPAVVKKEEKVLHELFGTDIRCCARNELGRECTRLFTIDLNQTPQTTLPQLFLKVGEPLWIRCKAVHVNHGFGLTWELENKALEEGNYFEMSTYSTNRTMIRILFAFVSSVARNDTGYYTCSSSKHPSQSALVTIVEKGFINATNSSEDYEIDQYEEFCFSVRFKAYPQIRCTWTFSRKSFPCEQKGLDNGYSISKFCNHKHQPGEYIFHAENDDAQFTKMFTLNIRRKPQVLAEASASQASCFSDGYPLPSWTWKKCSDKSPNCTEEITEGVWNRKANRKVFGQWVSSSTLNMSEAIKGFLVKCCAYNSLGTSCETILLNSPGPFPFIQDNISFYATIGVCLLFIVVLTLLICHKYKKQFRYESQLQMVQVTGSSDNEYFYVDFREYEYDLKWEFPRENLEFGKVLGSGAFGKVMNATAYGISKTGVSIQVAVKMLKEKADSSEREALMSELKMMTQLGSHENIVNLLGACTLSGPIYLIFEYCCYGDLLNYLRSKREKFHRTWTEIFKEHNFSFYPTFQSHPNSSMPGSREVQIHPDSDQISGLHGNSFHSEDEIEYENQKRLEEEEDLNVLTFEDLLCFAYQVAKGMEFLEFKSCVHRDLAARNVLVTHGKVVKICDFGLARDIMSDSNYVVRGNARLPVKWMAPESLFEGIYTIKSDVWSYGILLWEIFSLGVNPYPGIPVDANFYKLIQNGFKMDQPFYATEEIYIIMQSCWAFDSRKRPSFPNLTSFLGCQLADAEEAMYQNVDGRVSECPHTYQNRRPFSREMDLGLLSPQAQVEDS
# [11] = Protein binding in plasma (unknown origin); format: ADME, cell-free; conditions: read-out: PPB (converted)
SMILES,IC50 [2] [nM],IC50 (Cytochrome P450 1A2) [nM],IC50 (Cytochrome P450 2C9) [nM],IC50 (Cytochrome P450 2C19) [nM],IC50 (Cytochrome P450 2D6) [nM],IC50 (Cytochrome P450 3A4) [nM],Cmax [3] [ng/mL],AUC [4] [ng·h/mL],solubility [5] [µg/mL],half-life at 1 µM [6] [min],half-life at 1 µM [7] [min],Cmax [8] [ng/mL],AUC at 8 h [9] [ng·h/mL],IC50 [10] [nM],fraction unbound [11],GI50 (MCF7) [nM],GI50 (MDA-MB-468) [nM],GI50 (MDA-MB-231) [nM],GI50 [1] [nM]
CN(C)Cc1ccc(/C=C/c2n[nH]c3cc([C@@H]4C[C@@]45C(=O)Nc4ccc(F)cc45)ccc23)cc1 (relative stereo),–,–,–,–,–,–,–,–,–,–,–,–,–,–,–,100,10,550,2200
CNC(=O)c1ccccc1Sc1ccc2c(/C=C/c3ccccn3)n[nH]c2c1 [AXITINIB],–,–,–,–,–,–,–,–,–,–,–,–,–,–,–,2300,2800,–,4600
Cc1ccc2c(c1)[C@]1(C[C@H]1c1ccc3c(/C=C/c4ccc(CN(C)C)cc4)n[nH]c3c1)C(=O)N2 (relative stereo),–,–,–,–,–,–,–,–,–,–,–,–,–,–,–,0.01,0.05,2800,3400
O=C1Nc2ccccc2[C@]12C[C@H]2c1ccc2cn[nH]c2c1 (relative stereo),> 10000,> 10000,> 10000,10000,> 10000,> 10000,–,–,8,49,> 60,1200,1620,3200,0.17,16000,14000,–,–
Cc1ccc2c(c1)[C@]1(C[C@H]1c1ccc3c(/C=C/c4ccc(CN5CCOCC5)cc4)n[nH]c3c1)C(=O)N2 (relative stereo),–,–,–,–,–,–,–,–,–,–,–,–,–,–,–,80,30,560,8800
O=C1Nc2ccccc2[C@]12C[C@H]2c1ccc2c(/C=C/c3ccc(CN4CCCC4)cc3)n[nH]c2c1 (relative stereo),–,–,–,–,–,–,–,–,–,–,–,–,–,–,–,50,< 10,1900,4100
CN(C)Cc1ccc(/C=C/c2n[nH]c3cc([C@@H]4C[C@@]45C(=O)Nc4ccc(Cl)cc45)ccc23)cc1 (relative stereo),–,–,–,–,–,–,–,–,–,–,–,–,–,–,–,0.01,0.06,930,3500
CCc1ccc2c(c1)[C@]1(C[C@H]1c1ccc3c(/C=C/c4ccc(CN(C)C)cc4)n[nH]c3c1)C(=O)N2 (relative stereo),–,–,–,–,–,–,–,–,–,–,–,–,–,–,–,240,10,2000,2000
Cc1ccc(/C=C/c2n[nH]c3cc([C@@H]4C[C@@]45C(=O)Nc4ccccc45)ccc23)cn1,–,–,–,–,–,–,–,–,–,–,–,–,–,–,–,280,140,3800,7600
O=C1Nc2ccccc2[C@]12C[C@H]2c1ccc2c(/C=C/c3ccc(CN4CCCCC4)nc3)n[nH]c2c1 (relative stereo),–,–,–,–,–,–,–,–,–,–,–,–,–,–,–,0.01,0.4,35800,3400

# Further lines, with some results ahead:
IC50 [2] [nM],IC50 (Cytochrome P450 1A2) [nM],IC50 (Cytochrome P450 2C9) [nM],IC50 (Cytochrome P450 2C19) [nM],IC50 (Cytochrome P450 2D6) [nM],IC50 (Cytochrome P450 3A4) [nM],Cmax [3] [ng/mL],AUC [4] [ng·h/mL],solubility [5] [µg/mL],half-life at 1 µM [6] [min],half-life at 1 µM [7] [min],Cmax [8] [ng/mL],AUC at 8 h [9] [ng·h/mL],IC50 [10] [nM],fraction unbound [11],SMILES,GI50 (MCF7) [nM],GI50 (MDA-MB-468) [nM],GI50 (MDA-MB-231) [nM],GI50 [1] [nM]
1400,> 10000,1400,1800,> 10000,> 1000,1800,4300,–,–,–,–,–,–,–,O=C1Nc2ccccc2[C@]12C[C@H]2c1ccc2c(/C=C/c3ccc(CN4CCOCC4)cc3)n[nH]c2c1 (relative stereo),10,10,< 10,11300
2000,> 10000,1600,1600,> 10000,2100,–,–,0.19,9,16,200,450,–,–,COc1ccc2c(c1)[C@]1(C[C@H]1c1ccc3c(/C=C/c4ccc(N5CCN(C)CC5)nc4)n[nH]c3c1)C(=O)N2 (relative stereo),10,6,10,13400
4900,–,–,–,–,–,–,–,–,–,–,–,–,32,–,CN(C)Cc1ccc(/C=C/c2n[nH]c3cc([C@@H]4C[C@@]45C(=O)Nc4ccc(OC(F)F)cc45)ccc23)cc1 (relative stereo),25,5,4800,1600
7900,–,–,–,–,–,–,–,–,–,–,–,–,–,–,COc1ccc2c(c1)[C@]1(C[C@H]1c1ccc3c(/C=C/c4cc(F)c(CN5CCOCC5)c(F)c4)n[nH]c3c1)C(=O)N2 (relative stereo),50,60,1700,3700
–,–,1400,600,–,–,290,740,–,–,–,–,–,–,–,COc1ccc2c(c1)[C@]1(C[C@H]1c1ccc3c(/C=C/c4ccc(CN5CCCCC5)nc4)n[nH]c3c1)C(=O)N2 (relative stereo),0.01,0.02,3900,9200
24000,> 10000,1400,2100,> 1000,> 1000,1700,4900,–,–,–,–,–,–,–,COc1ccc2c(c1)[C@]1(C[C@H]1c1ccc3c(/C=C/c4ccc(CN5CCOCC5)cc4)n[nH]c3c1)C(=O)N2 (relative stereo),< 10,< 10,< 10,13800
2100,–,–,–,–,–,–,–,–,–,–,–,–,59,–,Cc1ccc(/C=C/c2n[nH]c3cc([C@@H]4C[C@@]45C(=O)Nc4ccccc45)ccc23)c(C)n1 (relative stereo),6800,70,> 50000,50000
–,> 10000,500,1000,> 10000,> 1000,3700,7940,–,–,–,–,–,–,–,O=C1Nc2ccc(F)cc2[C@]12C[C@H]2c1ccc2c(/C=C/c3ccc(CN4CCOCC4)cc3)n[nH]c2c1,900,20,720,10000
120,> 1000,> 1000,> 1000,> 10000,> 10000,190,580,–,–,–,–,–,120,–,CN1CCN(Cc2ccc(/C=C/c3n[nH]c4cc([C@@H]5C[C@@]56C(=O)Nc5ccccc56)ccc34)cc2)CC1 (relative stereo),10,10,2500,6000
12,–,–,–,–,–,–,–,–,–,–,–,–,–,–,O=C1Nc2ccccc2[C@]12C[C@H]2c1ccc2c(/C=C/c3ccc(CN4CCCCC4)cc3)n[nH]c2c1 (relative stereo),600,500,900,800
–,140,320,110,> 1000,> 1000,37,93,–,–,–,–,–,–,–,O=C1Nc2ccccc2[C@]12C[C@H]2c1ccc2c(/C=C/c3cccnc3)n[nH]c2c1 (relative stereo),3600,9,50000,14700
